Test results published in publication PMC9575645 (Signal Transduction and Targeted Therapy, 2022).

What was measured:
SARS-CoV-2 (KCDC03) = assay: In vitro antiviral activity against SARS-CoV-2 in Vero E6 cells (CCIF viral yield, RT-qPCR); type: cell-based; conditions: for SI (CC50/IC50) / IC50: SARS-CoV-2 (KCDC03); for IC50: Vero E6 cells; for virus replication (genome copy number, infectious progeny): SARS-CoV-2-infected Vero E6, 20 µM at 18 hpi
Vero E6 = assay: Cytotoxicity, MTT assay, Vero E6; type: cell-based, African green monkey
Experimental: (§1) The cytotoxic effects of the chemicals and their solvents were tested by the MTT assay,[44] and its procedure is described in Supplementary Information.
(§2) The cytotoxic effects of the chemicals and their solvents used were tested by the MTT assay as described previously.^10 In brief, the chemicals were dissolved in DMSO to a stock concentration of 10 mM, and then freshly serially diluted in serum-free medium before being added to cell culture monolayers. The absorbance was measured using an enzyme-linked immunosorbent assay (ELISA) reader at an optical density (OD) of 570 nm. The percent cell viability was calculated using the following formula, [(ODsample˗ODblank)/(ODcontrol˗ODblank)] × 100%. According to the cell cytotoxicity data, dose-response curves were generated for the calculation of CC50 using GraphPad Prism software version 8.4.2.

MA104 = assay: Cytotoxicity, MTT assay, MA104; type: cell-based, African green monkey
Experimental: as §1, §2

MARC = assay: Cytotoxicity, MTT assay, MARC; type: cell-based, African green monkey
Experimental: as §1, §2

LLC-PK = assay: Cytotoxicity, MTT assay, LLC-PK; type: cell-based, porcine
Experimental: as §1, §2

[1] = tested on: proinflammatory cytokines; assay: Proinflammatory cytokines in SARS-CoV-2-infected Vero E6 cells (RT-qPCR, ELISA); type: cell-based, African green monkey; conditions: 20 μM
IAV HA and M2 proteins = type: cell-based, Influenza A virus
lipid droplets (LDs) = assay: BODIPY lipid droplet immunofluorescence in IAV-infected A549 cells; type: cell-based, human; conditions: MOI = 1 FFU
Experimental: To characterize the dynamics of LD formation, apoptotic and necroptotic cells, and virus infectivity, an IFA was performed with the […], MDCK, Caco-2, Vero E6, MA104, MARC-145, LLC-PK, and HRT-18G cells, infected with or without each virus, and treated with vehicles or chemicals at the different time points (Table S3), or transfected with siRNA or scrambled siRNA as described above.^ 16^,27^,28 Briefly, cells were prepared in 8-well chamber slides infected with IAV, SARS-CoV-2, BCoV, PEDV, RVA, PRRSV, or PSaV at an MOI of 1 (IAV), or MOI of 0.1 (SARS-CoV-2, BCoV, PEDV, RVA, PRRSV, or PSaV) and treated with or without chemicals. […] Subsequently, cells were washed thrice with PBS (pH 7.4) and mounted with SlowFade Gold antifade reagent containing 1 × DAPI solution (Molecular Probes) for nucleus staining, observed with a LSM 800 confocal microscope, and analysed using Zen Blue Software 2.6 (Carl Zeiss; Jena, Germany).
The number and size of intracellular LDs were measured as described previously.^28 Briefly, four images were taken of each sample and converted into a pixel unit, and the data were processed and quantified using Adobe Photoshop CS6. […] The results were expressed as relative values, where the average number and size of pixels of positive color in virus-infected groups were normalized to those of the mock-treated, mock-infected control.

[2] = tested on: Species A Rotavirus (NCDV); conditions: for IC50: Species A Rotavirus (NCDV), MA104 cells
[3] = tested on: Porcine respiratory reproductive syndrome virus (LMY); conditions: for IC50: PRRSV (LMY), MARC-145 cells
[4] = tested on: Porcine sapovirus (Cowden); conditions: for IC50: Porcine sapovirus (Cowden), LLC-PK cells
[5] = In vivo toxicity in mice (body weight, gross and histopathological organ changes); conditions: for gross and histopathological changes in major organs (liver, lung, kidney, heart, spleen): 0.1, 1, or 10 mg kg^-1 d^-1 Bid for 4 consecutive days

## COc1nn(-c2ccc(NC(=O)OCc3ccccc3)c(C)c2)c(=O)o1 [CAY10499]
SARS-CoV-2 (KCDC03)
  SI (CC50/IC50): 62
  IC50: 1540 ± 180 nM
  virus replication (genome copy number, infectious progeny): inhibiting the replication
Vero E6
  CC50: 102 ± 8.3 µM
MA104
  CC50: 107 ± 5.6 µM
MARC
  CC50: 101 ± 4 µM
LLC-PK
  CC50: 109 ± 8.1 µM
[1]
  levels of TNF-α, IL-6, and MCP-1: markedly reduced
IAV HA and M2 proteins
  palmitoylation of IAV HA and M2 proteins: significantly inhibited
Lipid droplets (LDs)
  intracellular LDs (BODIPY): Retention of LDs
[2]
  SI (CC50/IC50): 5
  IC50: 20.9 ± 5.06 µM
[3]
  SI (CC50/IC50): 24
  IC50: 4.21 ± 0.55 µM
[4]
  SI (CC50/IC50): 9
  IC50: 11.8 ± 2.6 µM
[5]
  gross and histopathological changes in major organs (liver, lung, kidney, heart, spleen): no gross and histopathological changes

## CN(C)C(=O)Nc1cccc(-c2ccc(N(C)C)cc2)c1 [Atglistatin]
SARS-CoV-2 (KCDC03)
  SI (CC50/IC50): 154
  IC50: 1470 ± 120 nM
  virus replication (genome copy number, infectious progeny): inhibiting the replication
Vero E6
  CC50: 226 ± 2.4 µM
MA104
  CC50: 214.5 ± 2 µM
MARC
  CC50: 212 ± 3.5 µM
LLC-PK
  CC50: 224 ± 2.3 µM
[1]
  levels of TNF-α, IL-6, and MCP-1: markedly reduced
IAV HA and M2 proteins
  palmitoylation of IAV HA and M2 proteins: significantly inhibited
Lipid droplets (LDs)
  intracellular LDs (BODIPY): Retention of LDs
[2]
  SI (CC50/IC50): 32
  IC50: 6.7 ± 0.49 µM
[3]
  SI (CC50/IC50): 84
  IC50: 2.53 ± 0.18 µM
[4]
  SI (CC50/IC50): 72
  IC50: 3.11 ± 0.39 µM
[5]
  gross and histopathological changes in major organs (liver, lung, kidney, heart, spleen): no gross and histopathological changes
[5]; intraperitoneal 10 mg kg^-1 d^-1
  overt signs of toxicity, including loss of body weight: did not induce any overt signs of toxicity
